In brackets after ≈: the same amount, converted by molar mass.
Key:
[1] = test system: Staphylococcus aureus (MSSA); experiment: Broth microdilution MIC, aerobic bacteria (Example 1); format: cell-based; settings: isolate MMX 100 (ATCC 29213)
[2] = test system: Staphylococcus aureus (MRSA); experiment: microbe, parasite or virus in culture; format: cell-based; settings: Example 1; isolate MMX 757
[3] = test system: Enterococcus faecalis (VSE); experiment: Broth microdilution MIC, aerobic bacteria (Example 1); format: cell-based; settings: isolate MMX 101 (ATCC 29212)
[4] = test system: Enterococcus faecalis (VRE); experiment: microbe, parasite or virus in culture; format: cell-based; settings: Example 1; isolate MMX 848
Streptococcus pneumoniae = experiment: Broth microdilution MIC, aerobic bacteria (Example 1); format: cell-based; settings: Example 1; isolate MMX 1195 (ATCC 49619)
Streptococcus pyogenes = experiment: as above; format: cell-based; settings: isolate MMX 404
Escherichia coli = experiment: as above; format: cell-based; settings: isolate MMX 102 (ATCC 25922)
[5] = test system: Klebsiella pneumoniae (KPC-2); format: cell-based; settings: Example 1; isolate MMX 4683
Pseudomonas aeruginosa = experiment: Broth microdilution MIC, aerobic bacteria (Example 1); format: cell-based; settings: Example 1; isolate MMX 1380
Acinetobacter baumannii = experiment: as above; format: cell-based; settings: Example 1; isolate MMX 1630
Clostridium difficile = experiment: Broth microdilution MIC, anaerobic bacteria (Example 1); format: cell-based; settings: Example 1
Lactobacillus crispatus = experiment: as above; format: cell-based; settings: Example 1; isolate MMX 4147
Lactobacillus jensenii = experiment: as above; format: cell-based; settings: Example 1; isolate MMX 4149
Bifidobacterium bifidum = experiment: as above; format: cell-based; settings: Example 1; isolate MMX 3965
Bifidobacterium longum = experiment: as above; format: cell-based; settings: Example 1; isolate MMX 3968
Bacteroides fragilis = experiment: as above; format: cell-based; settings: Example 1; isolate MMX 123 (ATCC 5285)
Candida parapsilosis = experiment: Broth microdilution MIC, yeast and fungi (Example 1); format: cell-based
Aspergillus fumigatus = experiment: as above; format: cell-based; settings: isolate MMX 5280 (ATCC MYA-3626)
[6] = Compound precipitation in uninoculated solubility controls (Example 1); format: physicochemical; set-up: key to precipitation observed (type): NA: not applicable (no precipitation observed); TRP: trace precipitate; DCP: distinct precipitate
Method: Plates were stacked 3-4 high, covered with a lid on the top plate, placed in plastic bags, and incubated at 35° C. for approximately 16 to 20 hr (aerobes), 20 to 24 hr (Streptococcus), and 24 and 48 hr (fungi). Anaerobe plates were stacked, covered with a lid on the top plate, placed in a BD GasPak EZ Anaerobe Container System and incubated at 35° C. for 48 hr. Following incubation, the microplates were removed from the incubator and viewed from the bottom using a plate viewer. […] The MIC was read and recorded as the lowest concentration of drug that inhibited visible growth of the organism.

[7] = Bioavailability assay: VB110 and CBD decoupling analysis of intestinal contents (Example 2); format: in vivo; settings: mice, oral gavage 120 mg/kg VB110
Method: In order to investigate the effectiveness of glycosylation to effect site-specific drug delivery, VB110 was administered to three mice by oral gavage and the animals sacrificed at 30, 60, and 90 minutes. Eight-week old male Swiss mice were fasted for 12 hours prior to administration of 120 mg/kg VB110 in 10% Ethanol USP, 10% Propylene Glycol USP, 0.05% Sodium Deoxycholate USP, 79.95% Saline USP. Following termination and tissue harvest, the intestinal contents were then extracted and analyzed by C18 reverse phase HPLC. […] This decoupling of VB110 is consistent with the large intestinal decoupling seen for sennoside beta-glycosides and is the result of secreted beta-glycosidases from the large intestinal microflora.

S. aureus ATCC 29213 = experiment: MIC/MBC testing (Example 5); format: cell-based; settings: Staphylococcus aureus, ATCC29213; Example 5; read-out: MIC
S. aureus MMX 757 = experiment: MIC/MBC testing (Example 5); format: cell-based; settings: Staphylococcus aureus, MMX757; Example 5; read-out: MIC
E. faecalis ATCC 29212 = experiment: MIC/MBC testing (Example 5); format: cell-based; settings: Enterococcus faecalis, ATCC29212; Example 5; read-out: MIC
E. faecalis MMX 848 = experiment: MIC/MBC testing (Example 5); format: cell-based; settings: Enterococcus faecalis, MMX848; Example 5; read-out: MIC
S. pneumoniae ATCC 49619 = experiment: MIC/MBC testing (Example 5); format: cell-based; settings: Streptococcus pneumoniae, ATCC49619; Example 5; read-out: MIC
S. pyogenes MMX 404 = experiment: MIC/MBC testing (Example 5); format: cell-based; settings: Streptococcus pyogenes, MMX404; Example 5; read-out: MIC
E. coli ATCC 25922 = experiment: MIC/MBC testing (Example 5); format: cell-based

C=C(C)[C@@H]1CCC(C)=C[C@H]1c1c(O[C@@H]2O[C@H](CO)[C@@H](O)[C@H](O)[C@H]2O)cc(CCCCC)cc1O[C@@H]1O[C@H](CO)[C@@H](O)[C@H](O)[C@H]1O [VB110]
MIC [1]: >256 µg/mL | MIC [2]: >256 µg/mL | MIC [3]: >256 µg/mL | MIC [4]: >256 µg/mL | MIC (Streptococcus pneumoniae): >256 µg/mL | MIC (Streptococcus pyogenes): >256 µg/mL | MIC (Escherichia coli): >256 µg/mL | MIC [5]: >256 µg/mL | MIC (Pseudomonas aeruginosa): >256 µg/mL | MIC (Acinetobacter baumannii): >256 µg/mL | MIC (Clostridium difficile; isolate MMX 4381 (ATCC 00057)): >256 µg/mL | MIC (Clostridium difficile; isolate MMX 8330): >256 µg/mL | MIC (Clostridium difficile; isolate MMX 8333): >256 µg/mL | MIC (Lactobacillus crispatus): >256 µg/mL | MIC (Lactobacillus jensenii): >256 µg/mL | MIC (Bifidobacterium bifidum): >256 µg/mL | MIC (Bifidobacterium longum): >256 µg/mL | MIC (Bacteroides fragilis): >256 µg/mL | inhibition of growth relative to the growth control (Candida parapsilosis; 24 and 48 hr, concentrations >16 μg/mL): 50% | MIC at 24 hr (Candida parapsilosis; Example 1, 24 hr, isolate MMX 2323 (ATCC 22019)): >256^2, μg/mL | MIC at 48 hr (Candida parapsilosis; Example 1, 48 hr, isolate MMX 2323 (ATCC 22019)): >256^2 μg/mL | MIC at 24 hr (Aspergillus fumigatus; 24 hr): >256, μg/mL | MIC at 48 hr (Aspergillus fumigatus; 48 hr): >256 µg/mL | precipitation observed (type) ([6]; MHB II): none | lowest concentration at which precipitation was observed ([6]; RPMI): 32 µg/mL | precipitation observed (type) ([6]; RPMI): TRP | small intestinal contents (HPLC) ([7]; 30, 60, and 90 minutes): intact VB110, but no decoupled CBD | large intestinal contents (HPLC) ([7]; 60 and 90 minute time points): contained both VB110 and CBD

C[C@@H](O)[C@H]1C(=O)N2C(C(=O)O)=C(SCCN=CN)C[C@H]12 [Imipenem]
MIC (S. aureus ATCC 29213): 0.015 µg/mL (≈ 0.0501 µM) | MIC (S. aureus MMX 757): 4 µg/mL (≈ 13.4 µM) | MIC (E. faecalis ATCC 29212): 0.5 µg/mL (≈ 1.67 µM) | MIC (E. faecalis MMX 848): 1 µg/mL (≈ 3.34 µM) | MIC (S. pneumoniae ATCC 49619): 0.015 µg/mL (≈ 0.0501 µM) | MIC (S. pyogenes MMX 404): ≤ 0.008 µg/mL | MBC (E. coli ATCC 25922; Escherichia coli, ATCC25922, Example 5, quality control MBC test): 0.12 µg/mL (≈ 0.401 µM) | MIC (E. coli ATCC 25922; Escherichia coli, ATCC25922, Example 5, read-out: MIC): 0.12 µg/mL (≈ 0.401 µM) | MBC:MIC (E. coli ATCC 25922; ratios of 1-4 are indicative of bactericidal activity): 1

— patent publication US11207291B2, “Antimicrobial compositions comprising cannabinoids and methods of using the same” (Graphium Biosciences, Inc., priority 2017, dated 2021)
